ChEMBL document CHEMBL1687838, “The in vitro contribution of autolysins to bacterial killing elicited by amoxicillin increases with inoculum size in Enterococcus faecalis” (2011)
Values after ≈ are worked out from the molar mass of the structure shown. Active and inactive are the calls of the source. No cut-off for these calls is given here.

Tests used:
Enterococcus faecalis [1] = experiment: Bactericidal activity against 5 X 10^8 CFU/ml Enterococcus faecalis JH2-2 at 2 ug/ml after 6 hrs by time kill analysis; assay type: functional
Enterococcus faecalis [2] = experiment: (§1) Bactericidal activity against 5 X 10^8 CFU/ml Enterococcus faecalis JH2-2 harboring deletion at AltA, AltB and AltC gene infected in rabbit assessed as bacterial load per gram of vegetation at 50 mg/kg, im administered three times a day starting 48 hrs post-infection measured after 24 hrs by time kill analysis (reference value: 8.69+- 1.19 log10 CFU/g); assay type: functional; details: route intramuscular
Enterococcus faecalis [3] = experiment: as §1, with “JH2-2” for “JH2-2 harboring deletion at AltA, AltB and AltC gene”, “9.29+- 0.83” for “8.69+- 1.19”; assay type: functional; details: route intramuscular
Enterococcus faecalis [4] = experiment: Antibacterial activity against Enterococcus faecalis JH2-2 harboring deletion at AltA, AltB and AltC gene by CLSI method; assay type: functional
Enterococcus faecalis [5] = experiment: Bactericidal activity against 5 X 10^6 CFU/ml Enterococcus faecalis JH2-2 at 2 ug/ml after 24 hrs by time kill analysis; assay type: functional
Enterococcus faecalis [6] = experiment: Antibacterial activity against Enterococcus faecalis JH2-2 assessed as induction of membrane permeabilization at 2 ug/ml after 3 hrs by propidium iodide and Syto9 staining based confocal microscopic analysis; assay type: functional, organism-based
Enterococcus faecalis [7] = experiment: Bactericidal activity against 5 X 10^6 CFU/ml Enterococcus faecalis JH2-2 at 2 ug/ml after 6 hrs by time kill analysis; assay type: functional
Enterococcus faecalis [8] = experiment: Bactericidal activity against 5 X 10^8 CFU/ml Enterococcus faecalis JH2-2 at 2 ug/ml after 3 hrs by time kill analysis; assay type: functional
Enterococcus faecalis [9] = experiment: Bactericidal activity against 5 X 10^6 CFU/ml Enterococcus faecalis JH2-2 harboring deletion at AltA, AltB and AltC gene at 2 ug/ml after 6 hrs by time kill analysis; assay type: functional
Enterococcus faecalis [10] = experiment: Bactericidal activity against 5 X 10^8 CFU/ml Enterococcus faecalis JH2-2 harboring deletion at AltA, AltB and AltC gene at 2 ug/ml after 6 hrs by time kill analysis; assay type: functional
Enterococcus faecalis [11] = experiment: Antibacterial activity against Enterococcus faecalis JH2-2 harboring deletion at AltA, AltB and AltC gene assessed as induction of membrane permeabilization at 2 ug/ml after 3 hrs by propidium iodide and Syto9 staining based confocal microscopic analysis; assay type: functional, organism-based
Enterococcus faecalis [12] = experiment: Bactericidal activity against 5 X 10^6 CFU/ml Enterococcus faecalis JH2-2 harboring deletion at AltA, AltB and AltC gene at 2 ug/ml after 24 hrs by time kill analysis; assay type: functional
Enterococcus faecalis [13] = experiment: Bactericidal activity against 5 X 10^6 CFU/ml Enterococcus faecalis JH2-2 at 2 ug/ml after 3 hrs by time kill analysis; assay type: functional
Enterococcus faecalis [14] = experiment: Bactericidal activity against 5 X 10^6 CFU/ml Enterococcus faecalis JH2-2 harboring deletion at AltA, AltB and AltC gene at 2 ug/ml after 3 hrs by time kill analysis; assay type: functional
Enterococcus faecalis [15] = experiment: Bactericidal activity against 5 X 10^8 CFU/ml Enterococcus faecalis JH2-2 at 2 ug/ml after 24 hrs by time kill analysis; assay type: functional
Enterococcus faecalis [16] = experiment: Antibacterial activity against Enterococcus faecalis JH2-2 by CLSI method; assay type: functional
Enterococcus faecalis [17] = experiment: Bactericidal activity against 5 X 10^8 CFU/ml Enterococcus faecalis JH2-2 harboring deletion at AltA, AltB and AltC gene at 2 ug/ml after 24 hrs by time kill analysis; assay type: functional
Enterococcus faecalis [18] = experiment: Bactericidal activity against 5 X 10^8 CFU/ml Enterococcus faecalis JH2-2 harboring deletion at AltA, AltB and AltC gene at 2 ug/ml after 3 hrs by time kill analysis; assay type: functional

Compound: CC1(C)S[C@@H]2[C@H](NC(=O)[C@H](N)c3ccc(O)cc3)C(=O)N2[C@H]1C(=O)O [AMOXICILLIN]
- log10CFU/ml (Enterococcus faecalis [1]): 4.59
- log10CFU/g (Enterococcus faecalis [2]): 7.5
- log10CFU/g (Enterococcus faecalis [3]): 7.69
- MIC (Enterococcus faecalis [4]): 0.5 µg/mL (≈ 1.37 µM)
- log10CFU/ml (Enterococcus faecalis [5]): 2.48
- Activity (Enterococcus faecalis [6]): Active
- log10CFU/ml (Enterococcus faecalis [7]): 4.86
- log10CFU/ml (Enterococcus faecalis [8]): 1.73
- log10CFU/ml (Enterococcus faecalis [9]): 1.45
- log10CFU/ml (Enterococcus faecalis [10]): 0.79
- Activity (Enterococcus faecalis [11]): Active
- log10CFU/ml (Enterococcus faecalis [12]): 4.44
- log10CFU/ml (Enterococcus faecalis [13]): 2.07
- log10CFU/ml (Enterococcus faecalis [14]): 3.15
- log10CFU/ml (Enterococcus faecalis [15]): 1.1
- MIC (Enterococcus faecalis [16]): 0.5 µg/mL (≈ 1.37 µM)
- log10CFU/ml (Enterococcus faecalis [17]): 2.46
- log10CFU/ml (Enterococcus faecalis [18]): 2.83
